Experimental findings from PMC10682951, “Structure-function and rational design of a spider toxin Ssp1a at human voltage-gated sodium channel subtypes” (Frontiers in Pharmacology, 2023) are described below.

What all share (format): cell-based
One assay addresses T1, hNaV1.2 (Homo sapiens, UniProt Q99250).
T1 construct: host or cells: HEK293
In words: Automated whole-cell patch-clamp (QPatch 16X), hNaV1.2. The note with it: HEK293 cells expressing hNaV1.2 + β1 subunit; QPatch 16X; holding −80 mV, step to 0 mV; peptide incubated 2 min; 0.1% BSA; mean, SEM and n (2-7). The essentials:
(§1)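 HEK293 cells stably expressing the channel (human subtypes with β1 subunit), held at −80 mV; 2 min peptide pre-incubation, then 20 ms steps to 0 mV after a 200 ms −120 mV conditioning pulse. Extracellular pH 7.3 with 20 mM TEA-Cl, CsF-based pipette solution, 0.1% BSA; IC50 from four-parameter Hill fit.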

The next assay addresses T2, hNaV1.3 (Homo sapiens, UniProt Q9NY46).
T2 construct: host or cells: HEK293
In words: Automated whole-cell patch-clamp (QPatch 16X), hNaV1.3. The settings on record: HEK293 cells expressing hNaV1.3 + β1 subunit; QPatch 16X; holding −80 mV, step to 0 mV; peptide incubated 2 min; 0.1% BSA; mean, SEM and n (3-12). In short, it runs like this: as §1
A general note: In patch-clamp work, channel activity is measured electrically.

The target in another assay is T3, hNaV1.7 (Homo sapiens, UniProt Q15858).
T3 construct: host or cells: HEK293
T3 sequence (Q15858 whole entry): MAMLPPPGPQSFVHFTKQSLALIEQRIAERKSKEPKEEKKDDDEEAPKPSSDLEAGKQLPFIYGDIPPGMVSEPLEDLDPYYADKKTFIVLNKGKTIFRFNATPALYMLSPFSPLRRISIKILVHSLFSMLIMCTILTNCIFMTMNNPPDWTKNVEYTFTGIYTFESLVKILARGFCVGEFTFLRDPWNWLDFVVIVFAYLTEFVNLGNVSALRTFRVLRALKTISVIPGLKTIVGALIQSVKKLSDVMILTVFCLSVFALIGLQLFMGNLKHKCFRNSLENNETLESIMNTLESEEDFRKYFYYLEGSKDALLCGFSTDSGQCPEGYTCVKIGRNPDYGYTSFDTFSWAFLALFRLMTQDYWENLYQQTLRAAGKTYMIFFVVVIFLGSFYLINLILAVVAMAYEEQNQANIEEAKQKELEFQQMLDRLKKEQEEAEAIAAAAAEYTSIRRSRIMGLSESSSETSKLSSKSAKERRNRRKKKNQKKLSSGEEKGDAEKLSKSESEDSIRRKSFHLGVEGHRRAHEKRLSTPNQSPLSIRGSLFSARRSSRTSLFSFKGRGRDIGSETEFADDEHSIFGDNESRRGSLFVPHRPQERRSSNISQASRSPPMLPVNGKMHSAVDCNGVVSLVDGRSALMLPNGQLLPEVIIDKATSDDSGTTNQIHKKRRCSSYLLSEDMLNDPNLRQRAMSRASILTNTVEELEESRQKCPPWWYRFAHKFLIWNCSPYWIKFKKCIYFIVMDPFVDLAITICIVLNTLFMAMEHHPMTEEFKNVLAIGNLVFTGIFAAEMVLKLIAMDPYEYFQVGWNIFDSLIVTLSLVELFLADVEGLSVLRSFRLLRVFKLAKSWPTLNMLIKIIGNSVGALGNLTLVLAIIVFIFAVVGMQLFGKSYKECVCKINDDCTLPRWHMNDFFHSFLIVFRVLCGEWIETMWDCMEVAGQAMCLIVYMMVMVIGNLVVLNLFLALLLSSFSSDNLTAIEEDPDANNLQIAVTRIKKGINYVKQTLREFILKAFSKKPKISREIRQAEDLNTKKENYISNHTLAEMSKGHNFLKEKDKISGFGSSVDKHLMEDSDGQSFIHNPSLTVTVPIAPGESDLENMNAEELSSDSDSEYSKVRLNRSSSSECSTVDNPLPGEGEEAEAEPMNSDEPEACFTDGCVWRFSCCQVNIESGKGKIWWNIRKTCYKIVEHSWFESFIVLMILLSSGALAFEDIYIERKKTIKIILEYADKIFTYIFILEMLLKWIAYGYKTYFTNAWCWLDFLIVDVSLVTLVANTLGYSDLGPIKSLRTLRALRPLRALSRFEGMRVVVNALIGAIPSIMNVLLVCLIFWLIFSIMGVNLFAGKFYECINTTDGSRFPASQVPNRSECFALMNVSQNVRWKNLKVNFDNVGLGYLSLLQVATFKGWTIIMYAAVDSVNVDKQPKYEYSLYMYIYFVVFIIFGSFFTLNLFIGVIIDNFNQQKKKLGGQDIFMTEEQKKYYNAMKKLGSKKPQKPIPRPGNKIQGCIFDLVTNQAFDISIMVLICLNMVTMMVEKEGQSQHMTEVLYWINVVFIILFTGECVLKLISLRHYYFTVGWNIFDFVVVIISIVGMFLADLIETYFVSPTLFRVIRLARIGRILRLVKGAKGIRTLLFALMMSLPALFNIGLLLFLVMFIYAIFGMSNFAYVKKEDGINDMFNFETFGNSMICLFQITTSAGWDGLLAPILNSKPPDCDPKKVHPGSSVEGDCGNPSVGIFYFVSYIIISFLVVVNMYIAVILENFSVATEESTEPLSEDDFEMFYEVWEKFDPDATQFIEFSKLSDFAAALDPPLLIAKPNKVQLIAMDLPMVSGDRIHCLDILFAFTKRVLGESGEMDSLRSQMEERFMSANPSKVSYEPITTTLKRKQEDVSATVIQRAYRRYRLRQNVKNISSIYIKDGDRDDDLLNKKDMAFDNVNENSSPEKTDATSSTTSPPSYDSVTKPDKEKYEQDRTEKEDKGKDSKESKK
T3 sequence (Q07699 19-218, further chain): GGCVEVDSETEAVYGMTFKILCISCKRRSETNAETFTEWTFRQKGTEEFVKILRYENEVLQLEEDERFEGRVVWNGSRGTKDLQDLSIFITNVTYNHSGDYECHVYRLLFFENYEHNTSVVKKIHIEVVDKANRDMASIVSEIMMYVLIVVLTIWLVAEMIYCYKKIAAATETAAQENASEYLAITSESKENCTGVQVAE
In words: Automated whole-cell patch-clamp (QPatch 16X), hNaV1.7. The settings on record: HEK293 cells expressing hNaV1.7 + β1 subunit; QPatch 16X; holding −80 mV, step to 0 mV; peptide incubated 2 min; 0.1% BSA; mean, SEM and n (3-9). The essentials: as §1

T1 sequence (Q07699 19-218): as the sequence (Q07699 19-218, further chain) above
T1 sequence (Q99250 whole entry): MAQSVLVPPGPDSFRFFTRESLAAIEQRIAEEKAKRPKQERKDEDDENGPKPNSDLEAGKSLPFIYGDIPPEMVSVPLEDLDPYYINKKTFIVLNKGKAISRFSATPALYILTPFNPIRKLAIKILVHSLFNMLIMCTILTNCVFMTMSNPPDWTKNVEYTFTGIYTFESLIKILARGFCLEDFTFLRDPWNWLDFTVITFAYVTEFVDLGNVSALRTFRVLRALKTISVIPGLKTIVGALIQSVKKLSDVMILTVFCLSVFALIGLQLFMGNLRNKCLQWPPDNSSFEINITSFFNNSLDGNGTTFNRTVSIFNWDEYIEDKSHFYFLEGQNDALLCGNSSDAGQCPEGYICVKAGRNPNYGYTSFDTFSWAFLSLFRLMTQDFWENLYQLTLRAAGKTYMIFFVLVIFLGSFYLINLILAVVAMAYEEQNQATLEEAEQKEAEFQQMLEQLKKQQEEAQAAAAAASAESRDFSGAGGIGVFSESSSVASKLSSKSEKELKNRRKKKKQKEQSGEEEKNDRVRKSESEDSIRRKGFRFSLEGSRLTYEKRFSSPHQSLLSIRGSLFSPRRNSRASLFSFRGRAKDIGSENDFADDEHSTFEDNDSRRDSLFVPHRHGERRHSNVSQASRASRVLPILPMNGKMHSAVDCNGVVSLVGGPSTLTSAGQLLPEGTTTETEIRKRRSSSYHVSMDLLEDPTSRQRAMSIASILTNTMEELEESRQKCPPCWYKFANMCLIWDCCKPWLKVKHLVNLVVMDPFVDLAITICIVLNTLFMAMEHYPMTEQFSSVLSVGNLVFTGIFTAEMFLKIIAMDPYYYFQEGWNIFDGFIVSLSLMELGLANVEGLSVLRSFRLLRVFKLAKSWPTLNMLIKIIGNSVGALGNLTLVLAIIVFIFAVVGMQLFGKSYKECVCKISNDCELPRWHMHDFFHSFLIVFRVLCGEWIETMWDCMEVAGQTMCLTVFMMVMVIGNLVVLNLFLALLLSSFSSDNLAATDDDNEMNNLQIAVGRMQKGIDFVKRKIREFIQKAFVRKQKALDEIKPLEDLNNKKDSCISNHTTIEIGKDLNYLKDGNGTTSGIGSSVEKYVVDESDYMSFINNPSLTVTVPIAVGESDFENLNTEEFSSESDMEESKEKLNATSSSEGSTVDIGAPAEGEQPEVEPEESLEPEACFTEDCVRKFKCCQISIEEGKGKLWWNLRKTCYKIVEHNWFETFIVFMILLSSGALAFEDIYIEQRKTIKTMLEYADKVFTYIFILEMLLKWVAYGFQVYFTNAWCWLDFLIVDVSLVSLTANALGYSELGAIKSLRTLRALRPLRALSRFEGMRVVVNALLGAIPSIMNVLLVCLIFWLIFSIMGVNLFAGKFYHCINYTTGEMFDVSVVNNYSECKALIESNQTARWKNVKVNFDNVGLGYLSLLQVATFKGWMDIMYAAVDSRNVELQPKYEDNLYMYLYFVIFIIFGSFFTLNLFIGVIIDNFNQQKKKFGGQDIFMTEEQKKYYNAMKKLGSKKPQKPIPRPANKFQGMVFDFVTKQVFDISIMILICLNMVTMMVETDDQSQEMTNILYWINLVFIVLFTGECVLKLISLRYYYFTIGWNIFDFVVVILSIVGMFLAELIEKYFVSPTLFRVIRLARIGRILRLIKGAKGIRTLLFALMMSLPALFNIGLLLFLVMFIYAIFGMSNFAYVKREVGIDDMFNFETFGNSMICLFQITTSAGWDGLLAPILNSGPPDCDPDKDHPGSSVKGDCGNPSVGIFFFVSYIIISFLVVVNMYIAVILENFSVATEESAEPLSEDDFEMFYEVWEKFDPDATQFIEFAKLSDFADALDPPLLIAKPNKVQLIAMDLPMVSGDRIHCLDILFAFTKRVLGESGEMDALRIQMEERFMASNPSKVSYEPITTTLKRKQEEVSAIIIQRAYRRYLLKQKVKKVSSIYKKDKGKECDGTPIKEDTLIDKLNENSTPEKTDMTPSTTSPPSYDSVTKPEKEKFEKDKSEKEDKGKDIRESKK

On to `CC(C)C[C@H](NC(=O)[C@H](CC(=O)O)NC(=O)[C@H](Cc1ccc(O)cc1)NC(=O)[C@H](CCCNC(=N)N)NC(=O)[C@@H]1CSSC[C@@H]2NC(=O)[C@H](CCCCN)NC(=O)[C@H](C)NC(=O)[C@H](CC(N)=O)NC(=O)[C@H](CC(N)=O)NC(=O)[C@@H]3CCCN3C(=O)[C@H](CC(=O)O)NC(=O)[C@@H]3CSSC[C@H](NC(=O)[C@H](C(C)C)NC(=O)[C@H](Cc4ccc(O)cc4)NC(=O)CNC(=O)[C@H](CCC(=O)O)NC(=O)[C@H](CSSC[C@H](NC(=O)[C@H](CC(=O)O)NC(=O)CN)C(=O)N[C@@H](CC(C)C)C(=O)NCC(=O)N[C@@H](Cc4c[nH]c5ccccc45)C(=O)N[C@@H](Cc4ccccc4)C(=O)N[C@@H](CO)C(=O)NCC(=O)N3)NC2=O)C(=O)N[C@@H](Cc2c[nH]cn2)C(=O)N[C@@H](Cc2c[nH]c3ccccc23)C(=O)N[C@@H](CCCCN)C(=O)N[C@@H](Cc2ccc(O)cc2)C(=O)N2CCC[C@H]2C(=O)N[C@@H](Cc2c[nH]c3ccccc23)C(=O)N1)C(=O)O` [N14A], for which the IC50 (usually the concentration that inhibits the measured activity by half) stood at 0.224 µM at hNaV1.2, 0.784 µM at hNaV1.3 and 0.252 µM at hNaV1.7.

Take `CC(C)C[C@H](NC(=O)[C@H](Cc1ccccc1)NC(=O)[C@H](Cc1ccc(O)cc1)NC(=O)[C@H](CCCNC(=N)N)NC(=O)[C@@H]1CSSC[C@@H]2NC(=O)[C@H](CCCCN)NC(=O)[C@H](CC(N)=O)NC(=O)[C@H](CC(N)=O)NC(=O)[C@H](CC(N)=O)NC(=O)[C@@H]3CCCN3C(=O)[C@H](CC(=O)O)NC(=O)[C@@H]3CSSC[C@H](NC(=O)[C@H](C(C)C)NC(=O)[C@H](Cc4ccc(O)cc4)NC(=O)CNC(=O)[C@H](CCC(=O)O)NC(=O)[C@H](CSSC[C@H](NC(=O)[C@H](CC(=O)O)NC(=O)CN)C(=O)N[C@@H](CC(C)C)C(=O)NCC(=O)N[C@@H](Cc4c[nH]c5ccccc45)C(=O)N[C@@H](Cc4ccccc4)C(=O)N[C@@H](CO)C(=O)NCC(=O)N3)NC2=O)C(=O)N[C@@H](Cc2c[nH]cn2)C(=O)N[C@@H](Cc2c[nH]c3ccccc23)C(=O)N[C@@H](CCCCN)C(=O)N[C@@H](Cc2ccc(O)cc2)C(=O)N2CCC[C@H]2C(=O)N[C@@H](Cc2c[nH]c3ccccc23)C(=O)N1)C(=O)O` [D32F]: the IC50 on hNaV1.2 was determined as 0.219 µM; at hNaV1.3 it was 0.162 µM; on hNaV1.7, 0.203 µM.
